Measurements taken from patent publication US9517988B2 (Sichuan Haisco Pharmaceutical Co., Ltd., priority 2013, dated 2016).

Assays:
[1] = Righting reflex experiment on mice; conditions: both, ICR, mouse, in vivo; for MTD: intravenous; for LD50: iv
Description: (§1) LD5 (5% lethal dose): dose required to cause 5% of mice to die in a test.
(§2) If a normal animal was able to immediately turn its body to normal upright position after being pushed over or made lying on its back, such a reflex was determined as the righting reflex. Otherwise, loss of the righting reflex and the time of loss were recorded, and a reflex recovery time was recorded when the animal restored the righting reflex. The period from finishing of drug administration until loss of the righting reflex was recorded as the anesthesia induction time, and the period from loss of the righting reflex until recovery of the righting reflex was recorded as the anesthesia maintenance time.
(§3) TI (therapeutic index, i.e. LD50/ED50), SI (safety index, i.e. LD5/ED95).
(§4) MTD (maximum tolerated dose): the maximum dose able to cause 100% to loss the righting index without death.
(§5) Indicators such as median effective dose (ED50), median lethal dose (LD50), therapeutic index (TI, i.e. LD50/ED50), safety index (SI, i.e. LD5/ED95), anesthesia induction time, anesthesia maintenance time, and maximum tolerated dose (MTD) were used to evaluate the effect and safety of anesthesia. […] After adapting to the laboratory environment, laboratory animals were fasted for 12 hours. On the next day, administration was carried out at 10 mg/kg body weight. Upon intravenous injection, the time of loss of the righting reflex was recorded. The period from finishing of drug administration until loss of the righting reflex was recorded as the anesthesia induction time, and the period from loss of the righting reflex until recovery of the righting reflex was recorded as the anesthesia maintenance time. The anesthesia induction time and the anesthesia maintenance time were used to indicate how strong an anesthetic effect was. Meanwhile, the dose required to cause a 7-min anesthesia (HD7) was measured and used to evaluate relative efficacy.

ICR mice [2] = experiment: Righting reflex experiment on mice; conditions: for ED50: Mus musculus, iv; for Anesthesia induction time / Anesthesia maintenance time / HD7 / MTD: mice; for Anesthesia induction time / Anesthesia maintenance time: intravenous injection; for Anesthesia induction time: end of administration until loss of righting reflex; for Anesthesia maintenance time: loss until recovery of righting reflex; for SI: safety index, LD5/ED95, mice; for TI: therapeutic index, LD50/ED50, mice; for HD7: dose required to cause a 7-min anesthesia; for MTD: maximum dose causing 100% loss of righting reflex without death
Description: as §1, §2, §3, §4, §5

[3] = Pharmacokinetic experiment on rats; type: in vivo, SD rats; conditions: male, Sprague-Dawley, rat, plasma; Intravenous Injection into Rats (1 mg/kg)
Description: 3 male SD rats, each weighing 180 to 240 g, were fasted overnight with water access. A 1 mL/kg solution of the compound was formulated with 10% DMA, 20% solutol HS-15 (30%, w/v) and 70% physiological saline. Blood was sampled before administration and 2 min, 4 min, 8 min, 12 min, 15 min, 30 min, 1 h, 1.5 h and 2 h after administration. Blood samples were centrifuged at 5500 rpm for 10 min, and plasma was collected and stored at −40° C. 10 μl rat plasma from each time point was added to a 200 μl acetonitrile solution containing an internal standard and mixed, followed by 1-min vortexing and 18-min centrifugation at 3700 rpm. Then 70 μl supernatant was mixed with 70 μl water, and 10 μl of the mixture was analyzed by LC-MS/MS. Major pharmacokinetic parameters were subjected to a non-compartment analysis with the software WinNonlin 6.3.

[4] = Righting reflex experiment on mice with prodrugs; type: in vivo; conditions: both sexes, ICR, mouse, in vivo, mice; for MTD: intravenous, prodrugs; for LD50: intravenous injection, prodrugs in physiological saline
Description: (§6) After adapting to the laboratory environment, the SPF-grade ICR mice were fasted for 12 hours.

ICR mice [5] = experiment: Righting reflex experiment on mice with prodrugs; type: in vivo; conditions: for ED50: Mus musculus, prodrugs formulated with physiological saline, read-out: ED50; for ED50 / Anesthesia induction time / Anesthesia maintenance time: intravenous injection; for SI: safety index, LD5/ED95, mice; for TI: therapeutic index, LD50/ED50, mice
Description: as §6

[6] = Efficacy experiment on rats with prodrugs; type: in vivo; conditions: both sexes, Sprague-Dawley, rat, in vivo, intravenous, SD rats; for LD50: tail vein, non-linear fitting
Description: (§7) This experiment selected SD rats, each weighing 180 to 200 g. The rats were randomized, with 10 animals per group, half male and half female. […] The time of administration, time of loss of the righting reflex, time of recovery of the righting reflex, and time of walking were recorded. Adverse effects shown by the rats after administration were also recorded.
(§8) Time of loss of the righting reflex: the righting reflex is lost; a rat made lying on its back can maintain the lying for a period of 60 s;
(§9) Time of recovery of the righting reflex: the righting reflex ability is restored; a rat made lying on its back rights in less than 2 s;
(§10) Time of walking: spontaneous forwarding moving occurs, and muscle tension of the limbs recovers.
(§11) Using GraphPad Prism 5, ED50 and LD50 values were calculated from a non-linear fitting of number of anesthetic or dead animals resulting from various doses.

SD rats = experiment: Efficacy experiment on rats with prodrugs; type: in vivo; conditions: for ED50: Rattus norvegicus, non-linear fitting; for ED50 / Anesthesia induction time / Anesthesia maintenance time: SD rats, tail vein
Description: as §7, §8, §9, §10, §11

[7] = Pharmacokinetic analysis with prodrugs in rats; type: in vivo, SD rats; conditions: male, Sprague-Dawley, rat, plasma; Intravenous Injection into Rats (10 mg/kg); analyte: prodrug
Description: 3 male SD rats, each weighing 180 to 240 g, were fasted overnight with water access. After a single intravenous administration of a prodrug at 10 mg/kg to rats, the plasma concentrations of the prodrug and the active form were each measured by LC-MS/MS, and the pharmacokinetic parameters were analyzed.

## COc1cccc(C(C)C2CC2)c1O (stereo not shown) [Compound 8, 2-(1-cyclopropylethyl)-6-methoxy-phenol]
[1]
  MTD: 40 mg/kg
  LD50: 67 mg/kg
ICR mice [2]
  ED50: 7.3 mg/kg
  Anesthesia induction time: <15.0 s
  Anesthesia maintenance time: 394.8 s
  SI: 7.0
  TI: 9.1
[3]
  AUC(0-t): 132 ng·h/mL
  clearance: 119 mL/min/kg
  half-life: 48 min

## CC[C@H](C)c1cccc([C@@H](C)C2CC2)c1O [Compound 28, 2-[(1S)-1-cyclopropylethyl]-6-[(1S)-1-methylpropyl]phenol]
[1]
  MTD: 15 mg/kg
  LD50: 36.8 mg/kg
ICR mice [2]
  ED50: 5.3 mg/kg
  Anesthesia induction time: <15.0 s
  Anesthesia maintenance time: 885.9 s
  HD7: 8.0 mg/kg
  SI: 3.0
  TI: 6.9
[3]
  AUC(0-t): 143 ng·h/mL
  clearance: 115 mL/min/kg
  half-life: 18 min

## CC[C@@H](C)c1cccc([C@H](C)C2CC2)c1O [Compound 26, 2-[(1R)-1-cyclopropylethyl]-6-[(1R)-1-methylpropyl]phenol]
[1]
  MTD: 4 mg/kg
  LD50: 8.3 mg/kg
ICR mice [2]
  ED50: 1.3 mg/kg
  Anesthesia induction time: <15.0 s
  Anesthesia maintenance time: 690.0 s
  HD7: 2.5 mg/kg
  SI: 2.4
  TI: 6.4
[3]
  AUC(0-t): 124 ng·h/mL
  clearance: 134 mL/min/kg
  half-life: 30 min

## CC(C)c1cccc([C@H](C)C2CC2)c1OCOC(=O)[C@H](Cc1ccccc1)NC(=O)OC(C)(C)C [Compound 61, [2-[(1R)-1-cyclopropylethyl]-6-isopropyl-phenoxy]methyl(2S)-2-(tertbutoxycarbonylamino)-3-phenyl-propanoate]
[4]
  MTD: 40 mg/kg
  LD50: 87.4 mg/kg
ICR mice [5]; mice
  ED50: 6.1 mg/kg
ICR mice [5]; mice, prodrugs
  Anesthesia induction time: 17.5 s
  Anesthesia maintenance time: 1109.2 s
  ED50 and efficacy compared with propofol: smaller ED50 value and higher efficacy than propofol
ICR mice [5]; prodrugs
  SI: 3.7
  TI: 14.4
[6]
  MTD: 40 mg/kg
  LD50: 60.8 mg/kg
SD rats
  ED50: 6.5 mg/kg
  Anesthesia induction time: 0.0 s
  Anesthesia maintenance time: 1474.9 s
SD rats; rats, prodrugs
  ED50 and efficacy compared with propofol: smaller ED50 and higher efficacy than propofol
SD rats; safety index, LD5/ED95, rats
  SI: 6.3
SD rats; therapeutic index, LD50/ED50, rats
  TI: 9.4

## CC(C)c1cccc([C@H](C)C2CC2)c1OP(=O)(O)O [Compound 46, [[2-[(1R)-1-cyclopropylethyl]-6-isopropyl-phenoxy]-sodiooxy-phosphoryl]oxysodium]
[7]
  AUC(0-t): 22400 ng·h/mL
  clearance: 6.1 mL/min/kg
  half-life: 54 min
[4]
  MTD: 200 mg/kg
  LD50: 225 mg/kg
ICR mice [5]; mice
  ED50: 72.6 mg/kg
ICR mice [5]; mice, prodrugs
  Anesthesia induction time: 167.0 s
  Anesthesia maintenance time: 2204.6 s
ICR mice [5]; prodrugs
  SI: 2.4
  TI: 3.1

## CC(C)c1cccc([C@H](C)C2CC2)c1OCOP(=O)([O-])[O-].[Na+].[Na+] [Compound 52]
[7]
  AUC(0-t): 15900 ng·h/mL
  clearance: 10.5 mL/min/kg
  half-life: 24 min
[4]
  LD50: 86.2 mg/kg
ICR mice [5]; mice
  ED50: 20.4 mg/kg
ICR mice [5]; mice, prodrugs
  Anesthesia induction time: 73.0 s
  Anesthesia maintenance time: 1830.2 s
  MTD: 60.0 mg/kg
ICR mice [5]; prodrugs
  SI: 3.3
  TI: 4.2
[6]
  MTD: 30 mg/kg
  LD50: 61.4 mg/kg
SD rats
  ED50: 12.5 to 15 mg/kg
  Anesthesia induction time: 92.8 s
  Anesthesia maintenance time: 1946.3 s

## CC[C@H](C)c1cccc([C@H](C)C2CC2)c1O [Compound 25, 2-[(1R)-1-cyclopropylethyl]-6-[(1S)-1-methylpropyl]phenol]
[1]
  MTD: 10 mg/kg
  LD50: 14.3 mg/kg
ICR mice [2]
  ED50: 2 mg/kg
  Anesthesia induction time: <15.0 s
  Anesthesia maintenance time: 1048.0 s
  HD7: 4.0 mg/kg
  SI: 4.6
  TI: 7.1
[3]
  AUC(0-t): 78.1 ng·h/mL
  clearance: 208 mL/min/kg
  half-life: 24 min

## CC(C)c1cccc([C@@H](C)C2CCC2)c1O [Compound 15, 2-[(1S)-1-cyclobutylethyl]-6-isopropyl-phenol]
[1]
  LD50: 107 mg/kg
ICR mice [2]
  ED50: 46.1 mg/kg
  Anesthesia induction time: <15.0 s
  Anesthesia maintenance time: 485.8 s
  MTD: 70.0 mg/kg
  SI: 1.1
  TI: 2.3

## CC(c1cccc(C(C)C2CC2)c1O)C1CC1 (stereo not shown) [Compound 13, 2,6-bis(1-cyclopropylethyl)phenol]
[1]
  LD50: 20 mg/kg
ICR mice [2]
  ED50: 3.6 mg/kg
  Anesthesia induction time: <15.0 s
  Anesthesia maintenance time: 554.4 s
  HD7: 7.0 mg/kg
  MTD: 10.0 mg/kg
  SI: 3.0
  TI: 5.5
[3]
  AUC(0-t): 187 ng·h/mL
  clearance: 87.5 mL/min/kg
  half-life: 12 min

## CC(C)c1cccc(C(C)C2CCC2)c1O (stereo not shown) [Compound 7, 2-(1-cyclobutylethyl)-6-isopropylphenol]
[1]
  LD50: 40 mg/kg
ICR mice [2]
  ED50: 7.1 mg/kg
  Anesthesia induction time: <15.0 s
  Anesthesia maintenance time: 958.0 s
  MTD: 30.0 mg/kg
  SI: 2.7
  TI: 5.7

## CC(C)c1cccc(C(C)C2CC2)c1O (stereo not shown) [Compound 3, 2-(1-cyclopropylethyl)-6-isopropylphenol]
[1]
  MTD: 10 mg/kg
  LD50: 22.7 mg/kg
ICR mice [2]
  ED50: 3.7 mg/kg
  Anesthesia induction time: <15.0 s
  Anesthesia maintenance time: 660.4 s
  HD7: 6.0 mg/kg
  SI: 1.7
  TI: 6.1

## CC(c1cccc(C2CC2)c1O)C1CC1 (stereo not shown) [Compound 5, 2-cyclopropyl-6-(1-cyclopropylethyl)phenol]
[1]
  MTD: 60 mg/kg
  LD50: 80 mg/kg
ICR mice [2]
  ED50: 14.5 mg/kg
  Anesthesia induction time: <15.0 s
  Anesthesia maintenance time: 1669.5 s
  SI: 4.0
  TI: 5.5

## CC[C@@H](C)c1cccc([C@@H](C)C2CC2)c1O [Compound 29, 2-[(1S)-1-cyclopropylethyl]-6-[(1R)-1-methylpropyl]phenol]
[1]
  MTD: 40 mg/kg
  LD50: 65.4 mg/kg
ICR mice [2]
  ED50: 10.1 mg/kg
  Anesthesia induction time: <15.0 s
  Anesthesia maintenance time: 1149.5 s
  SI: 3.7
  TI: 6.4
[3]
  AUC(0-t): 114 ng·h/mL
  clearance: 145 mL/min/kg
  half-life: 24 min

## CC(C)c1cccc([C@H](C)C2CCC2)c1O [Compound 14, 2-[(1R)-1-cyclobutylethyl]-6-isopropyl-phenol]
[1]
  LD50: 38.2 mg/kg
ICR mice [2]
  ED50: 6.6 mg/kg
  Anesthesia induction time: <15.0 s
  Anesthesia maintenance time: 2235.6 s
  MTD: 35.0 mg/kg
  SI: 3.7
  TI: 5.8

## CC(c1cccc(C2(C)CC2)c1O)C1CC1 (stereo not shown) [Compound 6, 2-(1-cyclopropylethyl)-6-(1-methylcyclopropyl)phenol]
[1]
  MTD: 30 mg/kg
  LD50: 40 mg/kg
ICR mice [2]
  ED50: 10.5 mg/kg
  Anesthesia induction time: <15.0 s
  Anesthesia maintenance time: 554.9 s
  SI: 2.7
  TI: 3.8
